The values that follow come from PubChem BioAssay (NCI).

SMILES strings stand for the structures. Values joined by “and” are separate entries in the source; they are usually repeats but may differ in a detail not shown here. Equal entries are not always repeated.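 Results reflect a 48-hour exposure of cells in 96-well plates to compound at five concentrations. At the GI50, growth is halved. TGI denotes the concentration required for complete inhibition of growth.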 Some results are limits rather than exact numbers.

Among the test systems are SK-MEL-5 melanoma; HOP-92 NSCLC; NCI-H23 lung; SW-620 colon; TK-10 renal; LOX IMVI melanoma; IGROV1 ovarian; CAKI-1 renal; HCC-2998 colon.
Common to all, as to assay: NCI-60 cell line screen, 48 h

`FC(F)(F)c1nc(-c2ccccc2Cl)[nH]c1C(F)(F)F`: the TGI worked out at 0.833 µM in the test with SK-MEL-5 melanoma; 1.22 µM with HOP-92 NSCLC; 2.03 µM in the test with NCI-H23 lung; 6.63 µM with SW-620 colon; 14.5 µM in the test with TK-10 renal; 1.23 µM in the test on LOX IMVI melanoma. Besides, the TGI in the test with IGROV1 ovarian was determined as 8.97 µM; in the test with CAKI-1 renal it was 1.65 µM.

As for `C1COCCN1.C1COCCN1.N.N.[Cl-].[Pt+2]`, the GI50 with SK-MEL-5 melanoma, in the test with NCI-H23 lung, in the test with SW-620 colon, in the test with TK-10 renal, in the test with LOX IMVI melanoma and with IGROV1 ovarian was over 100 µM throughout. Also, the GI50 with HCC-2998 colon is over 100 µM; in the test on CAKI-1 renal it was 54.1 µM. In addition, the TGI in the test on SK-MEL-5 melanoma, with NCI-H23 lung, in the test with SW-620 colon, with TK-10 renal, in the test with LOX IMVI melanoma and in the test on IGROV1 ovarian was over 100 µM throughout. Moreover, the TGI in the test with HCC-2998 colon and in the test with CAKI-1 renal was over 100 µM in each case.

In the case of `COc1ccc(/C=C/C=C(/C#N)C(N)=S)cc1`, the GI50 with SK-MEL-5 melanoma is 18.3 µM; in the test with NCI-H23 lung, 28.7 µM; in the test on SW-620 colon, 21.3 µM; in the test with TK-10 renal it was 37.6 µM; in the test on LOX IMVI melanoma, 16 µM; with IGROV1 ovarian, 28.3 µM. Also, in the test on CAKI-1 renal, the GI50 is 29.6 µM. Further, the TGI is 36.4 µM in the test on SK-MEL-5 melanoma; over 100 µM with NCI-H23 lung; 61.2 µM in the test with SW-620 colon; over 100 µM in the test on TK-10 renal; 37.4 µM in the test with LOX IMVI melanoma; over 100 µM in the test on IGROV1 ovarian. Also, the TGI with CAKI-1 renal is over 100 µM.

On to `CC(=O)[CH-]C(=O)c1ccccc1.CC(=O)[CH-]C(=O)c1ccccc1.CCCCCCCCCCCCCCCCCC(=O)[O-].CCCCCCCCCCCCCCCCCC(=O)[O-].[Ti+4]`, for which the GI50 with SK-MEL-5 melanoma is 21 µM; in the test with HOP-92 NSCLC, 17 µM; in the test on NCI-H23 lung it was 36.1 µM; with SW-620 colon, 33.3 µM; in the test on TK-10 renal, 34.8 µM; in the test with LOX IMVI melanoma, 18 µM. Besides, the GI50 in the test on IGROV1 ovarian is 34.9 µM; in the test with CAKI-1 renal it was 19.8 µM. Also, the TGI in the test on SK-MEL-5 melanoma was 48.2 µM; with HOP-92 NSCLC it was 33.9 µM; with NCI-H23 lung, over 100 µM; in the test with SW-620 colon, over 100 µM; in the test on TK-10 renal it was 99.1 µM; in the test with LOX IMVI melanoma, 35.9 µM. Further, the values for the TGI in the test with IGROV1 ovarian and with CAKI-1 renal were over 100 µM and 39.9 µM, respectively.

Regarding `COc1ccc2cc1Oc1ccc(cc1)C[C@H]1c3cc(c(OC)cc3CCN1C)Oc1c(OC)c(OC)cc3c1[C@H](C2)N(C)CC3`, the results for the GI50 with SK-MEL-5 melanoma, in the test on TK-10 renal and in the test on IGROV1 ovarian were 3.94 µM, 12.7 µM and 14.5 µM, respectively. Besides, the TGI with SK-MEL-5 melanoma was 11.8 µM and 13.8 µM and > 100 µM; in the test on HOP-92 NSCLC it was 11 µM and 26 µM and > 100 µM; in the test with NCI-H23 lung, 20.5 µM and 27.4 µM and > 100 µM; in the test with TK-10 renal, 15.6 µM and 25.2 µM and 53.5 µM; in the test with IGROV1 ovarian it was 19.6 µM and 27.8 µM and > 100 µM; in the test on HCC-2998 colon it was 8.65 µM.

On to `CSC1=NC=CCN1C`, for which the TGI in the test on SK-MEL-5 melanoma, in the test on NCI-H23 lung, in the test with SW-620 colon, with TK-10 renal, in the test on LOX IMVI melanoma and with IGROV1 ovarian was over 100 µM in each case. Moreover, the TGI in the test on HCC-2998 colon and with CAKI-1 renal was over 100 µM in each case.

Regarding `COc1cc2c(c3c1C=CCO3)C(=O)c1ccccc1C2=O`, the TGI in the test with SK-MEL-5 melanoma was 78.6 µM; in the test with HOP-92 NSCLC, over 100 µM; in the test on NCI-H23 lung it was over 100 µM; in the test with SW-620 colon it was 97.9 µM; in the test with TK-10 renal, over 100 µM; with LOX IMVI melanoma it was 78.6 µM. For the same compound, the TGI with IGROV1 ovarian was 78.5 µM; with HCC-2998 colon, over 100 µM.

With `Cn1cc(NC(=O)c2cc(NC(=O)CCCCCCCCCCC(=O)Nc3cc(C(=O)Nc4cc(C(=O)NCCC(=N)N)n(C)c4)n(C)c3)cn2C)cc1C(=O)NCCC(=N)N`, the TGI in the test with SK-MEL-5 melanoma was 87.8 µM; in the test with NCI-H23 lung, over 100 µM; with SW-620 colon, 55 µM; in the test on TK-10 renal, 87.9 µM; with LOX IMVI melanoma it was over 100 µM; with IGROV1 ovarian, over 100 µM. Also, the values for the TGI in the test on HCC-2998 colon and in the test on CAKI-1 renal were 73.6 µM and over 100 µM, respectively.

`O=C(C#Cc1c[nH]c(=O)[nH]c1=O)c1ccccc1Cl`: the TGI in the test with SK-MEL-5 melanoma was determined as 28.8 µM; in the test with HOP-92 NSCLC, 35.4 µM; in the test with NCI-H23 lung, 32.3 µM; with SW-620 colon it was 27.2 µM; with TK-10 renal, 36.1 µM; in the test on LOX IMVI melanoma, 26.7 µM. The TGI is 35 µM in the test with IGROV1 ovarian, 30.8 µM in the test on HCC-2998 colon and 31.3 µM in the test on CAKI-1 renal.

Regarding `COC1O[C@H]2CCN(C(=O)OCc3ccccc3)[C@H]2[C@H]1OCc1ccccc1` (stereo not given in full), the TGI in the test with SK-MEL-5 melanoma was 64.6 µM; with HOP-92 NSCLC, over 86 µM; with NCI-H23 lung, over 90.5 µM; in the test on SW-620 colon it was over 100 µM; in the test with TK-10 renal, over 100 µM; in the test with LOX IMVI melanoma, over 100 µM. For the same compound, the TGI in the test with IGROV1 ovarian, with HCC-2998 colon and with CAKI-1 renal was over 100 µM throughout.

Consider `Cc1cc2c(cc1C)[n+](=O)c(C(=O)C/C(=N/NC(=O)c1ccccc1O)C(=O)Nc1ccccc1C(C)C)c(C)n2[O-]`, for which the TGI in the test with SK-MEL-5 melanoma, in the test on NCI-H23 lung, with SW-620 colon, with TK-10 renal, with LOX IMVI melanoma and in the test with IGROV1 ovarian was over 100 µM in each case. Moreover, the TGI in the test on HCC-2998 colon and with CAKI-1 renal was over 100 µM throughout.

Regarding `O=[N+]([O-])[C@@H]1C2C=CC(C2)[C@H]1Cl` (stereo not given in full), the TGI in the test with SK-MEL-5 melanoma, with HOP-92 NSCLC, in the test on NCI-H23 lung, in the test with SW-620 colon, in the test on TK-10 renal and with LOX IMVI melanoma was over 100 µM throughout. The TGI in the test with IGROV1 ovarian and in the test on CAKI-1 renal was over 100 µM throughout.

With `Cc1ccccc1C(C#N)C(=O)C(=O)Nc1nc([N+](=O)[O-])cs1` (stereo not given), the TGI with SK-MEL-5 melanoma, in the test with NCI-H23 lung, with SW-620 colon, in the test with TK-10 renal, in the test with LOX IMVI melanoma and in the test on IGROV1 ovarian was over 100 µM in each case. Further, the TGI in the test with HCC-2998 colon and in the test on CAKI-1 renal was over 100 µM in each case.

Regarding `COC(=O)C(c1[nH]nc2ccccc12)C(C(=O)OC)c1[nH]nc2ccccc12` (stereo not given), the TGI in the test on NCI-H23 lung is over 100 µM; in the test with SW-620 colon it was 33.7 µM; with TK-10 renal, over 100 µM; in the test on LOX IMVI melanoma, over 100 µM; with IGROV1 ovarian, over 100 µM; in the test on HCC-2998 colon it was over 100 µM.
